Earlier results in patent US6458974B1, “Synthesis of β-lapachone and its intermediates” (Cyclis Pharmaceuticals, Inc., priority 2001, dated 2002).
pIC50: −log10 of the molar value.

Columns and labels:
[1] = test system: normal fresh or proliferating human PBMC
human cancer cell lines = conditions: single agent, concentrations typically in this range, read-out: antineoplastic activity (IC50)

CC1(C)CCC2=C(O1)c1ccccc1C(=O)C2=O [β-lapachone, 3,4-dihydro-2,2-dimethyl-2H-naphtho[1,2-b]pyran-5,6-dione]
cytotoxic effects [1]: No cytotoxic effects
pIC50 (human cancer cell lines): 5.00 to 6.00
